US8299123B2, “CCR10 antagonists” (Boehringer Ingelheim International GmbH, priority 2007, dated 2012)

CCCCOc1ccc(Cl)cc1C(=O)N[C@H]1C[C@@H]1c1ccc(-c2ccc(C(=O)O)cc2)cc1 [Compound 108, 4′-{(1R,2S)-2-[(2-butoxy-5-chlorobenzoyl)amino]cyclopropyl}-biphenyl-4-carboxylic acid]
melting point: 218 to 222 °C
